Experimental data taken from patent publication US5202242A, “A83543 compounds and processes for production thereof” (DowElanco, priority 1991, dated 1993).
≈ marks a conversion by molar mass, not a printed value. Where two headings read alike, the source gives them in different places.

Key:
[1] = tested on: Beet Armyworm; test: Mite/insect screen: Beet Armyworm (BAW); type: in vivo, Spodoptera exiqua; details: Spodoptera exigua, 144 h, 6 day
Experimental: (§1) The formula 1A compounds were tested for miticidal and insecticidal activity in the following mite/insect screen. Each test compound was formulated by dissolving the compound in an acetone-alcohol (1:1) mixture containing 23 g of TOXIMUL R (sulfonate/nonionic emulsifier blend) and 13 g of TOXIMUL S (sulfonate/nonionic emulsifier blend) per liter. These mixtures were then diluted with water to give the indicated concentrations.
(§2) Two-spotted spider mites and cotton aphids were introduced on squash cotyledons and allowed to establish on both leaf surfaces. The leaves were then sprayed with 5 ml of test solutions using a DeVilbiss atomizing sprayer at 10 psi. Both surfaces of the leaves were covered until run off and then allowed to dry for one hour. After standard exposure periods percent mortality was evaluated. Additional insects were evaluated using similar formulations and evaluation procedures.

[2] = tested on: Cotton Aphid; test: Mite/insect screen: Cotton Aphid (CA); type: in vivo, Aphis gossypii Glover; details: Aphis gossypii, 4-5 day
Experimental: as §1, §2

[3] = tested on: Aster Leafhopper; test: Mite/insect screen: Aster Leafhopper (ALH); type: in vivo; details: Macrosteles fascifrons, 24 hr
Experimental: as §1, §2

[4] = tested on: Neonate Tobacco Budworm; test: LD50 against neonate tobacco budworm (petri dish assay); type: in vivo; details: Heliothis virescens; neonate larvae; mortality evaluated at 24 and 48 hours; mean of two tests
Experimental: The formula 1A compounds were evaluated in the following assay to determine the LD50 against neonate tobacco budworm (Heliothis virescens). A petri dish (100 mm×20 mm) is inverted and the lid lined with a #1 qualitative filter paper. Ten neonate larvae are placed in each dish and a 1 ml test solution is pipetted onto the insects. The petri dish bottom is then placed on the lid to contain the larvae. At 1 hr. after treatment, a small piece of Heliothis diet (modified shurry, Southland Products, Lake Village, AR) is added to each dish. The mortality is evaluated at 24 and 48 hours. Each test is run in triplicate.

[5] = tested on: Adult Stablefly; test: In vitro activity against adult stable fly; type: in vivo; details: Stomoxys calcitrans
Text: (§3) The formula 1A compounds are also active against members of the insect order Diptera. Tables VIII and IX summarize the in vitro studies of the formula 1A compounds against blowfly larvae and adult stable fly.

[6] = tested on: Rootknot Nematode; test: Mite/insect screen: Rootknot Nematode (NEM); type: in vivo, Meliiodyne spp.; details: 264 h, 11 day
Experimental: as §1, §2

[7] = tested on: Blowfly Larvae; test: In vitro activity against blowfly larvae; type: in vivo; details: 5 ppm
Text: as §3

[8] = tested on: Two-spotted Spider Mite; test: Mite/insect screen: Two-spotted Spider Mite (TSSM); type: in vivo; details: Tetranychus urticae, 4-5 day
Experimental: as §1, §2

[9] = tested on: Southern Corn Rootworm; test: Mite/insect screen: Southern Corn Rootworm (SCRW); type: in vivo, Diabrotica undecimpunctata howardi; details: 264 h, 11 day
Experimental: as §1, §2

[10] = tested on: German Cockroach; test: Mite/insect screen: German Cockroach (GECR); type: in vivo; details: Blattella germanica
Experimental: as §1, §2

[11] = tested on: Tobacco Budworm; test: Mite/insect screen: Tobacco Budworm (TBW); type: in vivo; details: Heliothis virescens, 144 h, 6 day
Experimental: as §1, §2

[12] = 24 hr, read-out: % mortality 24 hr
[13] = 48 hr, read-out: % mortality 48 hr

| Compound | inhibition at 200 ppm [1] [%] | inhibition at 400 ppm [1] [%] | inhibition at 200 ppm [2] [%] | inhibition at 400 ppm [2] [%] | inhibition at 200 ppm [3] [%] | inhibition at 400 ppm [3] [%] | LC50 [4] [mg/L] | mortality at 5 ppm [5, 12] [%] | mortality at 5 ppm [5, 13] [%] | inhibition at 200 ppm [6] [%] | inhibition at 400 ppm [6] [%] | inhibition at 200 ppm [8] [%] | inhibition at 400 ppm [8] [%] | inhibition at 200 ppm [9] [%] | inhibition at 400 ppm [9] [%] | inhibition at 200 ppm ([10]; 168 h, 7 day) [%] | inhibition at 400 ppm ([10]; 168 h, 7 day) [%] | inhibition at 200 ppm ([10]; 504 h, 21 day) [%] | inhibition at 400 ppm ([10]; 504 h, 21 day) [%] | inhibition at 200 ppm [11] [%] | other results |
| --- | --- | --- | --- | --- | --- | --- | --- | --- | --- | --- | --- | --- | --- | --- | --- | --- | --- | --- | --- | --- | --- |
| CCC1CCCC(OC2CCC(N(C)C)C(C)O2)C(C)C(=O)C2=CC3C(C=C(C)C4CC(OC5OC(C)C(OC)C(O)C5OC)CC43)C2CC(=O)O1 (stereo not shown) [Compound A83543L] | 100 | 100 | 0 | 0 | 100 | 100 | 26 (≈ 35.5 µM) | 70 | 100 | 0 | 0 | 0 | 0 | 0 | 0 | 40 | 0 | 100 | 100 | 100 | % mortality [7]: 90%; inhibition at 400 ppm [11]: 100% |
| CCC1CCCC(OC2CCC(NC)C(C)O2)C(C)C(=O)C2=CC3C(C=CC4CC(OC5OC(C)C(OC)C(O)C5OC)CC43)C2CC(=O)O1 (stereo not shown) [Compound A83543M] | 0 | 0 | 0 | 0 | 60 | 100 | 22.6 (≈ 32.1 µM) | 60 | 100 | 0 | 0 | 0 | 0 | 0 | 0 | 0 | 0 | 20 | 40 | 70 | inhibition at 400 ppm [11]: 100% |
| CCC1CCCC(OC2CCC(NC)C(C)O2)C(C)C(=O)C2=CC3C(C=C(C)C4CC(OC5OC(C)C(OC)C(O)C5OC)CC43)C2CC(=O)O1 (stereo not shown) [Compound A83543N] | 90 | 100 | 0 | 0 | 100 | 100 | 40 (≈ 55.7 µM) | 20 | 90 | 0 | 0 | 0 | 0 | 0 | 0 | 0 | 0 | 0 | 0 | 100 | inhibition at 400 ppm [11]: 100% |
